{
  "source": "the OligoGym collection",
  "note": "HELM strings list units from the 5' end as sugar, base in round brackets, then linkage (d deoxyribose, r ribose, m 2'-O-methyl, p phosphodiester). Strings are as the collection lists them; they lack the last nucleoside at the 3' end of the tested compound. [moe] = 2'-O-(2-methoxyethyl) (MOE); [sp] = phosphorothioate linkage; [m5C] = 5-methylcytosine",
  "data": [
    {"target": "PRNP", "experiment": "mouse, dose not given", "details": "ASO", "units": {"3 h FOB score": "score 0-7"}, "values": [
      {"substance": "RNA1{[moe]([m5C])[sp].[moe](T)p.[moe](T)p.[moe](T)p.[moe]([m5C])[sp].d([m5C])[sp].d(T)[sp].d(G)[sp].d(A)[sp].d(T)[sp].d(A)[sp].d(G)[sp].d(T)[sp].d(T)[sp].d([m5C])[sp].[moe](A)p.[moe]([m5C])p.[moe](T)[sp].[moe](G)}$$$$ (last 3' nucleoside missing)", "3 h FOB score": 2.5},
      {"substance": "RNA1{[moe]([m5C])[sp].[moe](T)p.[moe]([m5C])p.[moe](A)p.[moe](G)[sp].d(G)[sp].d(T)[sp].d([m5C])[sp].d(T)[sp].d(A)[sp].d([m5C])[sp].d(T)[sp].d([m5C])[sp].d(T)[sp].d(A)[sp].[moe](T)p.[moe](G)p.[moe](T)[sp].[moe](T)}$$$$ (last 3' nucleoside missing)", "3 h FOB score": 0},
      {"substance": "RNA1{[moe]([m5C])[sp].[moe](T)p.[moe]([m5C])p.[moe](T)p.[moe](A)[sp].d(T)[sp].d(G)[sp].d(T)[sp].d(T)[sp].d(T)[sp].d(T)[sp].d([m5C])[sp].d([m5C])[sp].[moe](A)p.[moe](G)p.[moe](T)[sp].[moe](G)}$$$$ (last 3' nucleoside missing)", "3 h FOB score": 0.75},
      {"substance": "RNA1{[moe]([m5C])[sp].[moe](T)p.[moe]([m5C])p.[moe](T)p.[moe](A)[sp].d(T)[sp].d(G)[sp].d(T)[sp].d(T)[sp].d(T)[sp].d(T)[sp].d([m5C])[sp].d([m5C])[sp].d(A)[sp].d(G)[sp].[moe](T)p.[moe](G)p.[moe]([m5C])[sp].[moe]([m5C])}$$$$ (last 3' nucleoside missing)", "3 h FOB score": 1},
      {"substance": "RNA1{[moe]([m5C])[sp].[moe](T)p.[moe]([m5C])p.[moe](T)p.[moe](A)p.[moe](T)p.d(G)[sp].d(T)[sp].d(T)[sp].d(T)[sp].d(T)[sp].d([m5C])[sp].d([m5C])[sp].d(A)[sp].d(G)[sp].d(T)[sp].[moe](G)p.[moe]([m5C])[sp].[moe]([m5C])}$$$$ (last 3' nucleoside missing)", "3 h FOB score": 2},
      {"substance": "RNA1{[moe]([m5C])[sp].[moe](T)p.[moe]([m5C])p.[moe](T)p.[moe](A)p.d(T)[sp].d(G)[sp].d(T)[sp].d(T)[sp].d(T)[sp].d(T)[sp].d([m5C])[sp].d([m5C])[sp].d(A)[sp].[moe](G)[sp].[moe](T)p.[moe](G)p.[moe]([m5C])}$$$$ (last 3' nucleoside missing)", "3 h FOB score": 1},
      {"substance": "RNA1{[moe]([m5C])[sp].[moe](T)p.[moe]([m5C])p.[moe](T)p.[moe](A)p.d(T)[sp].d(G)[sp].d(T)[sp].d(T)[sp].d(T)[sp].d(T)[sp].d([m5C])[sp].d([m5C])[sp].d(A)[sp].[moe](G)p.[moe](T)p.[moe](G)[sp].[moe]([m5C])}$$$$ (last 3' nucleoside missing)", "3 h FOB score": 0.25},
      {"substance": "RNA1{[moe]([m5C])[sp].[moe](T)p.[moe]([m5C])p.[moe](T)p.d(A)[sp].d(T)[sp].d(G)[sp].d(T)[sp].d(T)[sp].d(T)[sp].d(T)[sp].d([m5C])[sp].d([m5C])[sp].d(A)[sp].[moe](G)p.[moe](T)p.[moe](G)p.[moe]([m5C])[sp].[moe]([m5C])}$$$$ (last 3' nucleoside missing)", "3 h FOB score": 3.25},
      {"substance": "RNA1{[moe]([m5C])[sp].[moe](T)p.[moe]([m5C])p.d(T)[sp].d(A)[sp].d(T)[sp].d(G)[sp].d(T)[sp].d(T)[sp].d(T)[sp].d(T)[sp].d([m5C])[sp].d([m5C])[sp].[moe](A)p.[moe](G)p.[moe](T)p.[moe](G)p.[moe]([m5C])[sp].[moe]([m5C])}$$$$ (last 3' nucleoside missing)", "3 h FOB score": 3},
      {"substance": "RNA1{[moe]([m5C])[sp].[moe]([m5C])p.[moe](A)p.[moe](G)p.[moe](A)[sp].d(A)[sp].d(G)[sp].d(T)[sp].d(T)[sp].d(T)[sp].d(A)[sp].d(A)[sp].d([m5C])[sp].d(A)[sp].d(T)[sp].[moe](A)p.[moe](T)p.[moe](T)[sp].[moe](T)}$$$$ (last 3' nucleoside missing)", "3 h FOB score": 0},
      {"substance": "RNA1{[moe]([m5C])[sp].[moe]([m5C])p.[moe](A)p.[moe](G)p.[moe](A)[sp].d(G)[sp].d(G)[sp].d(T)[sp].d(T)[sp].d([m5C])[sp].d(A)[sp].d(G)[sp].d(T)[sp].d(G)[sp].d(T)[sp].[moe](T)p.[moe](G)p.[moe](T)[sp].[moe](G)}$$$$ (last 3' nucleoside missing)", "3 h FOB score": 6.25},
      {"substance": "RNA1{[moe]([m5C])[sp].[moe]([m5C])p.[moe](A)p.[moe](T)p.[moe](T)[sp].d(T)[sp].d(T)[sp].d([m5C])[sp].d(T)[sp].d(G)[sp].d(T)[sp].d(G)[sp].d([m5C])[sp].d(T)[sp].d(T)[sp].[moe](T)p.[moe](T)p.[moe]([m5C])[sp].[moe]([m5C])}$$$$ (last 3' nucleoside missing)", "3 h FOB score": 4},
      {"substance": "RNA1{[moe]([m5C])[sp].[moe]([m5C])p.[moe](A)p.[moe]([m5C])p.[moe](A)[sp].d(T)[sp].d(A)[sp].d(T)[sp].d(A)[sp].d(G)[sp].d(G)[sp].d(G)[sp].d(T)[sp].d([m5C])[sp].d([m5C])[sp].[moe](T)p.[moe](T)p.[moe](T)[sp].[moe](A)}$$$$ (last 3' nucleoside missing)", "3 h FOB score": 1.5},
      {"substance": "RNA1{[moe]([m5C])[sp].[moe]([m5C])p.[moe](G)p.[moe](T)p.[moe](T)[sp].d([m5C])[sp].d(A)[sp].d(T)[sp].d([m5C])[sp].d(T)[sp].d(T)[sp].d(A)[sp].d(T)[sp].d(T)[sp].d([m5C])[sp].[moe]([m5C])p.[moe]([m5C])p.[moe](A)[sp].[moe](T)}$$$$ (last 3' nucleoside missing)", "3 h FOB score": 0},
      {"substance": "RNA1{[moe]([m5C])[sp].[moe]([m5C])p.[moe](T)p.[moe](G)p.[moe](T)[sp].d(T)[sp].d(A)[sp].d(A)[sp].d(T)[sp].d(G)[sp].d(G)[sp].d(T)[sp].d(G)[sp].d(T)[sp].d([m5C])[sp].[moe]([m5C])p.[moe](A)p.[moe]([m5C])[sp].[moe](T)}$$$$ (last 3' nucleoside missing)", "3 h FOB score": 2.5},
      {"substance": "RNA1{[moe]([m5C])[sp].[moe]([m5C])p.[moe](T)p.[moe](T)p.[moe](T)[sp].d([m5C])[sp].d(A)[sp].d(T)[sp].d(A)[sp].d(T)[sp].d(A)[sp].d(T)[sp].d(G)[sp].d(T)[sp].d(T)[sp].[moe](A)p.[moe]([m5C])p.[moe](A)[sp].[moe](G)}$$$$ (last 3' nucleoside missing)", "3 h FOB score": 5},
      {"substance": "RNA1{[moe]([m5C])[sp].[moe]([m5C])p.[moe]([m5C])p.[moe](A)p.[moe](G)[sp].d(T)[sp].d(G)[sp].d(T)[sp].d(T)[sp].d([m5C])[sp].d([m5C])[sp].d(A)[sp].d(T)[sp].d([m5C])[sp].d([m5C])[sp].[moe](T)p.[moe]([m5C])p.[moe]([m5C])[sp].[moe](A)}$$$$ (last 3' nucleoside missing)", "3 h FOB score": 2},
      {"substance": "RNA1{[moe]([m5C])[sp].[moe]([m5C])p.[moe]([m5C])p.[moe]([m5C])p.[moe](A)[sp].d(G)[sp].d(T)[sp].d(G)[sp].d(T)[sp].d(T)[sp].d([m5C])[sp].d([m5C])[sp].d(A)[sp].d(T)[sp].d([m5C])[sp].[moe]([m5C])p.[moe](T)p.[moe]([m5C])[sp].[moe]([m5C])}$$$$ (last 3' nucleoside missing)", "3 h FOB score": 0}
    ]}
  ]
}
